Reference: patent EP0066987B1, “N-(aryloxyalkyl)-N'-(amino-alkyl) ureas” (A.H. ROBINS COMPANY, INCORPORATED, priority 1981, dated 1982)

Experiment: Side effects compared with quinidine and lidocaine
Settings: as compared to quinidine and lidocaine

In the case of `CC(C)N(CCOc1cc(Cl)cc(Cl)c1)C(=O)NCCN(C)C.O=C(O)/C=C\C(=O)O` [Example 3, N-[2-(3,5-Dichlorophenoxy)ethyl]-N'-[2-(dimethylamino)ethyl]-N-(1-methylethyl)urea, maleate [1:1]], the CNS side effects is reported as “minimal CNS side effects”.
